Data published in patent publication US20230192700A1, “PYRAZOLOPYRAZINES ACTING ON CANCERS VIA INHIBITION OF CDK12” (Bayer Aktiengesellschaft, priority 2020, published 2023).

Key:
[1] = biological target: T1, CDK9/CyclinT1 (Homo sapiens, UniProt P50750); test: CDK9/CycT1 high ATP kinase assay (TR-FRET); format: biochemical; conditions: 2 mM ATP (high ATP); median; read-out: CDK9/CyclinT1, 2 mM ATP (high ATP) IC50 - [mol/l] (median)
T1 construct: Recombinant full-length His-tagged human CDK9 and CycT1; His-tag; purchased Life Technologies PV4131; host or cells: insect cells
Method: 2.5 CDK9/CycT1 High ATP Kinase Assay
CDK9/CycT1 -inhibitory activity of compounds of the present invention at a high ATP concentration after preincubation of enzyme and test compounds was quantified employing the CDK9/CycT1 TR-FRET assay as described in the following paragraphs.
Recombinant full-length His-tagged human CDK9 and CycT1, expressed in insect cells and purified by Ni-NTA affinity chromatography, were purchased from Life Technologies (Cat. No PV4131). As substrate for the kinase reaction biotinylated peptide biotin-Ttds-YISPLKSPYKISEG (C-terminus in amide form) was used which can be purchased e.g. form the company JERINI peptide technologies (Berlin, Germany).
For the assay 50 nanoL of a 100 fold concentrated solution of the test compound in DMSO was pipetted into either a black low volume 384 well microtiter plate or a black 1536 well microtiter plate (both Greiner Bio-One, Frickenhausen, Germany), 2 microL of a solution of CDK9/CycT1 in aqueous assay buffer [50 millimol/L Tris/HCl pH 8.0, 10 millimol/L MgCl2, 1.0 millimol/L dithiothreitol, 0.1 millimol/L sodium ortho-vanadate, 0.01% (v/v) Nonidet-P40 (Sigma)] were added and the mixture was incubated for 15 min at 22° C. to allow pre-binding of the test compounds to the enzyme before the start of the kinase reaction. Then the kinase reaction was started by the addition of 3 microL of a solution of adenosine-tri-phosphate (ATP, 3.3 millimol/L=>final conc. in the 5 microL assay volume is 2 millimol/L) and substrate (1.25 micromol/L =>final conc. in the 5 microL assay volume is 0.75 micromol/L) in assay buffer and the resulting mixture was incubated for a reaction time of 25 min at 22° C. The concentration of CDK9/CycT1 was adjusted depending of the activity of the enzyme lot and was chosen appropriate to have the assay in the linear range, typical concentrations were in the range of 0.5 microg/mL. The reaction was stopped by the addition of 3 microL of a solution of TR-FRET detection reagents (0.33 micromol/L streptavidine-XL665 [Cisbio Bioassays, Codolet, France] and 1.67 nanomol/L anti-RB(pSer807/pSer811)-antibody from BD Pharmingen [#558389] and 2 nanomol/L LANCE EU-W1024 labeled anti-mouse IgG antibody [Perkin-Elmer, product no. AD0077]) in an aqueous EDTA-solution (167 millimol/L EDTA, 0.2% (w/v) bovine serum albumin in 100 millimol/L HEPES pH 7.5).
The resulting mixture was incubated 1 h at 22° C. to allow the formation of complex between the phosphorylated biotinylated peptide and the detection reagents. Subsequently the amount of phosphorylated substrate was evaluated by measurement of the resonance energy transfer from the Eu-chelate to the streptavidine-XL. Therefore, the fluorescence emissions at 620 nm and 665 nm after excitation at 350 nm was measured in a TR-FRET reader, e.g. a Pherastar (BMG Labtechnologies, Offenburg, Germany) or a Viewlux (Perkin-Elmer). The ratio of the emissions at 665 nm and at […] was taken as the measure for the amount of phosphorylated substrate. The data were normalised (enzyme reaction without inhibitor=0% inhibition, all other assay components but no enzyme=100% inhibition).

[2] = biological target: T2, CDK12 (Homo sapiens, UniProt Q9NYV4); test: CDK12 nuclear protein level: immunofluorescence/high content analysis in CAL-120 cells; format: cell-based; conditions: for DC50: CAL-120 cells, 24 h, nuclear CDK12 staining intensity, median, read-out: CDK12 degradation IF DC50 - [mol/l] (median); for (IC50 CDK12 high ATP) to (Degradation DC50 CDK12) ratio: ratio of IC50 CDK12 hATP (2 mM ATP) to DC50 CDK12 (IF, CAL-120)
T2 construct: endogenous in cells; host or cells: CAL-120 human breast cancer cells (DSMZ ACC 459)
Method: 6. CDK12 Nuclear Protein Level: Immunofluorescence/High Content Analysis
In the context of the present invention, the term “DC50 CDK12” refers to the DC50 values obtained according to the assay described in this section (6) herein below, i.e. the DC50 values for the degradation of CDK12.:
CAL-120 human breast cancer cells (DSMZ ACC 459) are seeded in 1536-well microtiter plates (800 cells per well) containing 50 nanoL of compounds in Dose-Response. Control wells received DMSO or Reference Example 1. Plates are then incubated for 24 h at 37° C. in an humidified incubator and fixed with 4% PFA for 10 min. Then immunofluorescence (IF) against CDK12 (CellSignalling CDK12 Antibody #11973, rabbit, 1:100 dilution) is performed using standard IF protocols. Cells are then stained with Hoechst 33342 (Life Technologies, H-1399, 0.1 microg/mL) and imaged on an automated confocal microscopy system (e.g. Perkin Elmer Opera Phenix). Nuclear and cytoplasmic intensity as well as the nuclear/cytoplasmic intensity ratio is determined by automated image analysis using custom generated scripts (MetaXpress). Data is then transferred to Genedata Screener software, normalized to DMSO and control and DC50 values (degrading concentration to achieve 50% reduction of nuclear CDK12 staining intensity relative to controls) are reported.

T2 sequence (Q9NYV4 whole entry): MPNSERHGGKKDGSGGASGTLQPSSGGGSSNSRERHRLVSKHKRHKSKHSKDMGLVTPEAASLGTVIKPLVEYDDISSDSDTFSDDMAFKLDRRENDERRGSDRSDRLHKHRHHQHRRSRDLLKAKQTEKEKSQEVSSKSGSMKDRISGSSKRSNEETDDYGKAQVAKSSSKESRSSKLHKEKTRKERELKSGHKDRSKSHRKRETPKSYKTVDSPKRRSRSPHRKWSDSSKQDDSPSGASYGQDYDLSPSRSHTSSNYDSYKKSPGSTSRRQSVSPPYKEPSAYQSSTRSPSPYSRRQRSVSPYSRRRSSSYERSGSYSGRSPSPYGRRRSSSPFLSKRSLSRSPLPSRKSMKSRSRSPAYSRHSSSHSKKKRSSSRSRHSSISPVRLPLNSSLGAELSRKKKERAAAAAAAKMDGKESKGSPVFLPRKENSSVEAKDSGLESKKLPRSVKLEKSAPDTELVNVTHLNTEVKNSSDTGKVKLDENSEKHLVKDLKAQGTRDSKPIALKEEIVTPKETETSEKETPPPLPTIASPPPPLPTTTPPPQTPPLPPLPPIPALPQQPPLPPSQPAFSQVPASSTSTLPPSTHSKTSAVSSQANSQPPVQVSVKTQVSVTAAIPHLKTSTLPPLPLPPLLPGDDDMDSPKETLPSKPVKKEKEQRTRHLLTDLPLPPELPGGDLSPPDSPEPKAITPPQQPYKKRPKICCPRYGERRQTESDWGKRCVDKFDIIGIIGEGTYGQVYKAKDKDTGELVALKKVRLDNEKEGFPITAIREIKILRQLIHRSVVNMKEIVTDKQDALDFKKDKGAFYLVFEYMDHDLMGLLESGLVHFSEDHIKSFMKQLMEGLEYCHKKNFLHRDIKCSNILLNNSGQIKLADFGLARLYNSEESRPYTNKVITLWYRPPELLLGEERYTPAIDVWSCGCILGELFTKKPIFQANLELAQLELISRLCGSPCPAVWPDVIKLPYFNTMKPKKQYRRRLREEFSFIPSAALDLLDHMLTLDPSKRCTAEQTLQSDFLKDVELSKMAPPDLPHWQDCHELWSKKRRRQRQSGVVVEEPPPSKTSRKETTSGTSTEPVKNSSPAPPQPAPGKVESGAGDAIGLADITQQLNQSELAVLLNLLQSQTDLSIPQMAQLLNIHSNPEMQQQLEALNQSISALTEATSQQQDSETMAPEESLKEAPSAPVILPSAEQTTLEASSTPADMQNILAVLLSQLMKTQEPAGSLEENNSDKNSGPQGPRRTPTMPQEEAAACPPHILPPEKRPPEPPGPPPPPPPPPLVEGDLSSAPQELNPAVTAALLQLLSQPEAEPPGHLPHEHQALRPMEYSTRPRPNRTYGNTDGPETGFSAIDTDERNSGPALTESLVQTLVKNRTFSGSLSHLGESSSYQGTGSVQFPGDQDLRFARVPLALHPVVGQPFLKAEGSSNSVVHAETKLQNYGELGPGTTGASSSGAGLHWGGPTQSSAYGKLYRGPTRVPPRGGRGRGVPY
T2 sequence (O75909 whole entry partner): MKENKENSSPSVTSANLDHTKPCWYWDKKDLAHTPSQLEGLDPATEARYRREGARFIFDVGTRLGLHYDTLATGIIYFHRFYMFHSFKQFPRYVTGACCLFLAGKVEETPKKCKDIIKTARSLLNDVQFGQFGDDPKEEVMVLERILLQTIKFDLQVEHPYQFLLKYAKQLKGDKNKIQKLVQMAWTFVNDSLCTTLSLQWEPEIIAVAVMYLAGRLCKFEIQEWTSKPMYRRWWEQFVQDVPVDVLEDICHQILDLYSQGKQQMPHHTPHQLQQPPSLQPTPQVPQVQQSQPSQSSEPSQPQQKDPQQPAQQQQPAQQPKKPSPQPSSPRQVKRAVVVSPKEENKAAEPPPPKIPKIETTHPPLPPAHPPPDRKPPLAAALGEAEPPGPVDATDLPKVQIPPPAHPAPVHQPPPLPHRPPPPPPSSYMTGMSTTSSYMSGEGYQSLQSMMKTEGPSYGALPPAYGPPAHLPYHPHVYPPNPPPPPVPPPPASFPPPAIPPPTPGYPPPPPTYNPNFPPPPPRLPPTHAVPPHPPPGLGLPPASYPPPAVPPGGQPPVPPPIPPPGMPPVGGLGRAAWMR
T1 sequence (P50750 whole entry): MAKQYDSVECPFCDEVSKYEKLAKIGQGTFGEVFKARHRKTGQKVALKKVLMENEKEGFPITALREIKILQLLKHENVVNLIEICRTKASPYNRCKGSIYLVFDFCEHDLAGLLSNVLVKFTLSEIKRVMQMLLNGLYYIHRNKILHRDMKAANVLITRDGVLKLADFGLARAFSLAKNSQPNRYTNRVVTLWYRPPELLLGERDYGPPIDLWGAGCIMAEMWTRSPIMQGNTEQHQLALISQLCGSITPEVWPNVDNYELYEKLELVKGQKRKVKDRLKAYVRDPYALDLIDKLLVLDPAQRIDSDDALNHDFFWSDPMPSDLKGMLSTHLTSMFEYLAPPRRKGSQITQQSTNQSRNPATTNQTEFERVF
T1 sequence (O60563 whole entry partner): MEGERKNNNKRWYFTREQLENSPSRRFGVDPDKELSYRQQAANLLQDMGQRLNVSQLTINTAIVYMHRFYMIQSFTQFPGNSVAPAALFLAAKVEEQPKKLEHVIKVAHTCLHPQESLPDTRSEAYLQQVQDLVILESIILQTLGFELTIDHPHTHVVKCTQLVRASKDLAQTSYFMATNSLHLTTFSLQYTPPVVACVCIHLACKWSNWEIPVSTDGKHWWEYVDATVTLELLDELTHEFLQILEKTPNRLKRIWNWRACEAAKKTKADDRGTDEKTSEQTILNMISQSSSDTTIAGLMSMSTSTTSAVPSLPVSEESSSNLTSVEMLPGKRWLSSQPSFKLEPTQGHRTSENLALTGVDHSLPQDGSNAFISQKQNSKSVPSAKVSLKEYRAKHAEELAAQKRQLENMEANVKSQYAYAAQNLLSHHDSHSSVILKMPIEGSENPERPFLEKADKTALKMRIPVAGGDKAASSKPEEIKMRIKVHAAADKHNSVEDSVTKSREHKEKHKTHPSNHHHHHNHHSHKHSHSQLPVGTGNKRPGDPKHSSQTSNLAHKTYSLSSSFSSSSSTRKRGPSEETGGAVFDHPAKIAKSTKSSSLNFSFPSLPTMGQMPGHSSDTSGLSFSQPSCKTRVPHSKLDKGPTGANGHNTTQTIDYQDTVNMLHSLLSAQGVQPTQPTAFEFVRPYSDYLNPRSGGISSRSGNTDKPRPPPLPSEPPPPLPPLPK

Row | SMILES | IC50 [1] [nM] | DC50 [2] [nM] | (IC50 CDK12 high ATP) to (Degradation DC50 CDK12) ratio [2]
1 | c1ccc2[nH]c(CNc3nn(C4CCOCC4)c4nc(C5CC5)cnc34)nc2c1 [Example 16, N-[(1H-benzimidazol-2-yl)methyl]-6-cyclopropyl-1-(oxan-4-yl)-1H-pyrazolo[3,4-b]pyrazin-3-amine] | > 20000 | 84 | >238
2 | CC(C)n1nc(NCc2nc3ccccc3[nH]2)c2ncc(C3CC3)nc21 [Example 14, N-[(1H-benzimidazol-2-yl)methyl]-6-cyclopropyl-1-(propan-2-yl)-1H-pyrazolo[3,4-b]pyrazin-3-amine] | > 20000 | 49.6 | >403
3 | c1ccc2[nH]c(CNc3nn(C4CCCC4)c4nc(C5CC5)cnc34)nc2c1 [Example 39, N-[(1H-benzimidazol-2-yl)methyl]-1-cyclopentyl-6-cyclopropyl-1H-pyrazolo[3,4-b]pyrazin-3-amine] | > 20000 | 38.2 | >534
4 | CN1CCC(n2nc(NCc3nc4cc(C(F)(F)F)ccc4[nH]3)c3ncc(C4CC4)nc32)CC1 [Example 25, 6-cyclopropyl-1-(1-methylpiperidin-4-yl)-N-{[5-(trifluoromethyl)-1H-benzimidazol-2-yl]methyl}-1H-pyrazolo[3,4-b]pyrazin-3-amine] | > 20000 | 8.43 | 2193
5 | COCCC(C)n1nc(NCc2nc3ccccc3[nH]2)c2ncc(C3CC3)nc21 (single isomer, unassigned; (-)) [Example 58, (−)-N-[(1H-benzimidazol-2-yl)methyl]-6-cyclopropyl-1-[4-methoxybutan-2-yl]-1H-pyrazolo[3,4-b]pyrazin-3-amine] | > 20000 | 27.2 | >735
6 | CN1CCC(n2nc(NCc3nc4c(F)c(F)ccc4[nH]3)c3ncc(C4CC4)nc32)CC1 [Example 9, 6-cyclopropyl-N-[(4,5-difluoro-1H-benzimidazol-2-yl)methyl]-1-(1-methylpiperidin-4-yl)-1H-pyrazolo[3,4-b]pyrazin-3-amine] | > 20000 | 8.07 | >2478
7 | c1ccc2[nH]c(CNc3nn(C4CCOC4)c4nc(C5CC5)cnc34)nc2c1 (racemic) [Example 10, (±)-N-[(1H-benzimidazol-2-yl)methyl]-6-cyclopropyl-1-[oxolan-3-yl]-1H-pyrazolo[3,4-b]pyrazin-3-amine] | > 20000 | 40.8 | >4901
8 | O[C@H]1CC[C@H](n2nc(NCc3nc4ccccc4[nH]3)c3ncc(C4CC4)nc32)CC1 [Example 50, trans-4-(3-{[(1H-benzimidazol-2-yl)methyl]amino}-6-cyclopropyl-1H-pyrazolo[3,4-b]pyrazin-1-yl)cyclohexan-1-ol] | > 20000 | 3.15 | 
9 | Cc1c(Cl)ccc2[nH]c(CNc3nn(C4CCN(C)CC4)c4nc(C5CC5)cnc34)nc12 [Example 21, N-[(5-chloro-4-methyl-1H-benzimidazol-2-yl)methyl]-6-cyclopropyl-1-(1-methylpiperidin-4-yl)-1H-pyrazolo[3,4-b]pyrazin-3-amine] | > 20000 | 28.7 | >697
10 | CN1CCC(n2nc(NCc3nc4cc(F)ccc4[nH]3)c3ncc(C4CC4)nc32)CC1 [Example 4, 6-cyclopropyl-N-[(5-fluoro-1H-benzimidazol-2-yl)methyl]-1-(1-methylpiperidin-4-yl)-1H-pyrazolo[3,4-b]pyrazin-3-amine] | > 20000 | 4.3 | 
11 | O[C@H]1CC[C@H](n2nc(NCc3nc4cc(F)ccc4[nH]3)c3ncc(C4CC4)nc32)CC1 [Example 56, trans-4-(6-cyclopropyl-3-{[(5-fluoro-1H-benzimidazol-2-yl)methyl]amino}-1H-pyrazolo[3,4-b]pyrazin-1-yl)cyclohexan-1-ol] | > 20000 | 7.11 | 
12 | COc1cccc2[nH]c(CNc3nn(C4CCN(C)CC4)c4nc(C5CC5)cnc34)nc12 [Example 2, 6-cyclopropyl-N-[(4-methoxy-1H-benzimidazol-2-yl)methyl]-1-(1-methylpiperidin-4-yl)-1H-pyrazolo[3,4-b]pyrazin-3-amine] | > 20000 | 6.09 | >3284
13 | OC[C@H]1C[C@@H](n2nc(NCc3nc4ccccc4[nH]3)c3ncc(C4CC4)nc32)C1 [Example 47, [cis-3-(3-{[(1H-benzimidazol-2-yl)methyl]amino}-6-cyclopropyl-1H-pyrazolo[3,4-b]pyrazin-1-yl)cyclobutyl]methanol] | > 20000 | 22.8 | 
14 | CC(C)(O)Cn1nc(NCc2nc3ccccc3[nH]2)c2ncc(C3CC3)nc21 [Example 69, 1-(3-{[(1H-benzimidazol-2-yl)methyl]amino}-6-cyclopropyl-1H-pyrazolo[3,4-b]pyrazin-1-yl)-2-methylpropan-2-ol] | > 20000 | 99.4 | >101
15 | CC(CCN(C)C)n1nc(NCc2nc3ccccc3[nH]2)c2ncc(C3CC3)nc21 (racemic) [Example 62, (±)-N-[(1H-benzimidazol-2-yl)methyl]-6-cyclopropyl-1-[4-(dimethylamino)butan-2-yl]-1H-pyrazolo[3,4-b]pyrazin-3-amine] | > 20000 | 676 | 
16 | COCCC(C)n1nc(NCc2nc3ccccc3[nH]2)c2ncc(C3CC3)nc21 (racemic) [Example 57, (±)-N-[(1H-benzimidazol-2-yl)methyl]-6-cyclopropyl-1-(4-methoxybutan-2-yl)-1H-pyrazolo[3,4-b]pyrazin-3-amine] | > 20000 | 170 | >118
17 | CN1CCC(n2nc(NCc3nc4c(C(F)(F)F)cccc4[nH]3)c3ncc(C4CC4)nc32)CC1 [Example 7, 6-cyclopropyl-1-(1-methylpiperidin-4-yl)-N-{[4-(trifluoromethyl)-1H-benzimidazol-2-yl]methyl}-1H-pyrazolo[3,4-b]pyrazin-3-amine] | > 20000 | 14.4 | 
18 | CC1CC(n2nc(NCc3nc4ccccc4[nH]3)c3ncc(C4CC4)nc32)CCN1C (racemic) [Example 41, (±)-cis/trans-N-[(1H-benzimidazol-2-yl)methyl]-6-cyclopropyl-1-(1,2-dimethylpiperidin-4-yl)-1H-pyrazolo[3,4-b]pyrazin-3-amine] | > 20000 | 4.05 | 
